Reference: patent US4558068A, “Spirobenzofuranones and their use in treating peptic ulcers” (Takeda Chemical Industries, Ltd., priority 1983, dated 1985)

What was measured:
[1] = test system: stress ulcer; assay: Stress ulcer inhibiting effect, water immersion method (Takagi and Okabe); type: in vivo; conditions: rats, 50 mg/kg, i.p.; **: P < 0.05
Text: The stress ulcer inhibiting effect of the drug was investigated in rats in accordance with the water immersion method described by K. Takagi and S. Okabe, Jap. J. Pharmacol. 18, 9, 1968.

[2] = test system: ICR mice; assay: Acute oral toxicity, single administration, 7 days observation; type: in vivo; conditions: 500 mg/kg orally once

For `O=C(O)C(O)c1ccc2c(c1)C(=O)C1(CC1)O2` (centres unmarked), the “% Inhibition (stress ulcer)” value [1] was 56% and the “death during observation period” value [2] was “no death was found”.
